Assays:
[1] = tested on: PC3 human prostate carcinoma cell line; test: Inhibition of colony formation (dose-survival relation, Example 18); assay type: cell-based; settings: 50 µM
[2] = tested on: MCF-7 human mammary carcinoma cell line; test: as above; assay type: cell-based; settings: 50 µM (active substance), treated once
[3] = tested on: MDA-MB-231 human mammary carcinoma cell line; test: as above; assay type: cell-based; settings: 50 µM
MDA-MB-231 xenograft = test: In vivo antitumour effect on MDA-MB-231 xenograft in immunosuppressed mice; design: species or system CBA/Ca mice; settings: for Volume (cm^3) of tumours / Weight (g) of tumours: after 9 week treatment
Description: The immunosuppression of mice was carried out by using the method of Steel et al. [Br. J. Cancer, 37, 224-230 (1978)]. Immunosuppression and xeno-transplantation
CBA-Ca female mice of about 6 weeks old were thymectomized and then, after one week, they were irradiated with 60Co (whole body irradiation; the lethal dose is 9.5 Gray). Within 24 hours 3 to 5 x 10^5 myelocytes were injected into the animals. Beneath the skin of the immunosuppressed mice 2 x 10^7 tumour cells or, in the case of later passages, […] were implanted. […] The treatment with steroid hormone was stopped by at least one week before beginning the investigation.
Recent investigations have begun on 28 animals bearing MCF-7 xenograft and on 28 animals bearing MDA-MB-231 xenograft. On animals bearing MCF-7 tumour the treatment was commenced in the 5th week following xeno-transplantation; the tumour volume was 205 to 225 mm^3. On animals bearing MDA-MB-231 tumour, the treatment was started in the 4th week after xeno-transplantation with a tumour volume of 140 to 150 mm^3. […] The control groups were daily treated with physiological saline s.c. (Each treated group consisting of 7 animals).
A more recent study was started on 28 animals bearing MDA-MB-231 xenograft. The treatment was begun in the 4th or 5th week following xenotransplantation. The tumour volume was 0.165 to 0.194 cm^3. […] (For treatment of the control group, see the preceding Examples). Each group consisted of 7 animals.

rat hypophysis = settings: superfusion, relative to human GnRH; cited from earlier work
PC3 = test: Inhibition of colony formation by GnRH analogues (dose-survival, Example 48); assay type: cell-based, human; settings: within the dose range used (1-50 µM)
Ishikawa = test: as above; assay type: cell-based, human; settings: within the dose range used (1-50 µM)
MDA-MB-231 [4] = test: as above; assay type: cell-based, human; settings: 50 µM
MCF-7 [5] = test: as above; assay type: cell-based, human; settings: 50 µM, treated once
[6] = prolonged treatment for three cycles; high doses; cited from earlier work
human tumour cell lines = test: Inhibition of colony formation (Example 18), cell line not given; assay type: cell-based; settings: on any cell line (Table 1)
Description: The investigation gives a precise information about the cell-damaging effect of the tested substance. In the case of cytostatics the cell-damaging effect is not cell-specific. […] One part of the arrested cells again go into the cycle, the other part may perish (apoptosis). […] The investigations were carried out on MCF-7 and MDA-MB-231 human mammary carcinoma cell lines, PC3 human prostate 15 carcinoma cell line and Ishikawa human endometrium carcinoma cell line. Three hundred cells were set into Petri dishes of 3.5 cm in diameter each. The treatment was carried out once, 24 hours following the explantation, then the colonies formed were counted after 9 to 12 days.

[7] = Ovulation / cycle of female rats during prolonged treatment; assay type: in vivo; settings: high dose of the coupled GnRH-III; three cycles observed
Description: In 1993, researchers isolated and synthesized the Lamprey-III-GnRH decapeptide from lamprey (Petromyzon marinus) (p[…]NH2). This Lamprey-III-GnRH (herein below GnRH-III) exerts a significant tumour growth-inhibiting effect on human mammary tumour cell lines.

[8] = tested on: Ishikawa human endometrium carcinoma cell line; test: Inhibition of colony formation (dose-survival relation, Example 18); assay type: cell-based; settings: 50 µM
MDA-MB-231 [9] = settings: MDA-MB-231; 30 µM active substance; conjugate, treated once; listed as 11. P-GFLG-GnRH-III
Description: (§1) The procedure of treatment was as follows. After trypsinization the cells, 400,000 cells of MCF-7, MDA-MB-231 human mammary carcinoma, PC3 human prostate carcinoma or Ishikawa human endometrium tumour each were passed into Petri dishes of 10 cm in diameter. Starting from the day following transfer, the cells were treated with the substances to be tested in solution prepared with the nutrient medium during the exponential growth phase. […]

MCF-7 [10] = settings: MCF-7; 30 µM active substance; conjugate, treated once; cell count on 7th day; listed as 11. P-GFLG-GnRH-III
Description: as §1

[11] = MDA-MB-231 xenograft, 100 µg daily s.c.
[12] = Table V, treatment week 2, 1x100 µg daily s.c.
[13] = Table V, treatment week 4, 1x100 µg daily s.c.
[14] = Table V, treatment week 6, 1x100 µg daily s.c.
[15] = week 0, daily s.c., 1 x 100 µg series
[16] = week 1, daily s.c., 1 x 100 µg series
[17] = week 2, daily s.c., 1 x 100 µg series
[18] = week 3, daily s.c., 1 x 100 µg series
[19] = week 4, daily s.c., 1 x 100 µg series
[20] = week 5, daily s.c., 1 x 100 µg series
[21] = week 6, daily s.c., 1 x 100 µg series
[22] = week 7, daily s.c., 1 x 100 µg series

Molecule | % Inhibition of colony formation [1] [%] | % Inhibition of colony formation [2] [%] | Volume (cm^3) of tumours (MDA-MB-231 xenograft; [11]) [cm^3] | Weight (g) of tumours (MDA-MB-231 xenograft; [11]) [g] | Inhibition % (MDA-MB-231 xenograft; [12]) [%] | Tumour volume as control (%) (MDA-MB-231 xenograft; [12]) | Inhibition % (MDA-MB-231 xenograft; [13]) [%] | Tumour volume as control (%) (MDA-MB-231 xenograft; [13]) | Inhibition % (MDA-MB-231 xenograft; [14]) [%] | Tumour volume as control (%) (MDA-MB-231 xenograft; [14]) | Tumour volume (cm^3) (MDA-MB-231 xenograft; [15]) | Tumour volume as control (%) (MDA-MB-231 xenograft; [15]) | Tumour volume (cm^3) (MDA-MB-231 xenograft; [16]) | Tumour volume as control (%) (MDA-MB-231 xenograft; [16]) | Tumour volume (cm^3) (MDA-MB-231 xenograft; [17]) | Tumour volume as control (%) (MDA-MB-231 xenograft; [17]) | Tumour volume (cm^3) (MDA-MB-231 xenograft; [18]) | Tumour volume as control (%) (MDA-MB-231 xenograft; [18]) | Tumour volume (cm^3) (MDA-MB-231 xenograft; [19]) | Tumour volume as control (%) (MDA-MB-231 xenograft; [19]) | also measured
NCCCC[C@H](NC(=O)[C@H](Cc1c[nH]c2ccccc12)NC(=O)[C@H](CC(=O)O)NC(=O)[C@H](Cc1c[nH]cn1)NC(=O)[C@H](CO)NC(=O)[C@H](Cc1c[nH]c2ccccc12)NC(=O)[C@H](Cc1c[nH]cn1)NC(=O)[C@@H]1CCC(=O)N1)C(=O)N1CCC[C@H]1C(=O)NCC(N)=O [GnRH-III, reference compound] | 21 | 65 | 2.017 ± 0.585 | 1.84 ± 0.52 | 14 | 86 | 15 | 85 | 15 | 85 | 0.19 | 115 | 0.26 | 113 | 0.36 | 86 | 0.47 | 85 | 0.55 | 85 | % Inhibition of colony formation [3]: 69%; rate of tumour growth (MDA-MB-231 xenograft; [11]): did not inhibit; Tumour volume (cm^3) (MDA-MB-231 xenograft; [20]): 0.81 cm^3; Tumour volume as control (%) (MDA-MB-231 xenograft; [20]): 87%; Tumour volume (cm^3) (MDA-MB-231 xenograft; [21]): 1.04 cm^3; Tumour volume as control (%) (MDA-MB-231 xenograft; [21]): 85%; Tumour volume (cm^3) (MDA-MB-231 xenograft; [22]): 1.28 cm^3; Tumour volume as control (%) (MDA-MB-231 xenograft; [22]): 101%; LH-releasing effect (rat hypophysis): about thousand times weaker than that of the human GnRH; inhibition of colony formation (PC3): 21%; inhibition of colony formation (Ishikawa): did not inhibit; % Inhibition of the colony formation (MDA-MB-231 [4]): 49%; % Inhibition of the colony formation (MCF-7 [5]): 45%; ovulation of female rats [6]: did not inhibit the ovulation
{Lys[n-poly(N-vinylpyrrolidone-co-maleic acid)-Gly-Phe-Leu-Gly-]}^8,-GnRH-III [P-GFLG-GnRH-III] | 16 | 9 | 0.613 ± 0.307 | 0.45 ± 0.4 | 20 | 80 | 36 | 64 | 67 | 33 | 0.17 | 104 | 0.25 | 107 | 0.33 | 80 | 0.40 | 72 | 0.41 | 64 | inhibition of colony formation (human tumour cell lines): ≤ 16%; cycle of female rats (castration effect) [7]: not influenced; % Inhibition of colony formation [8]: 15%; animals that became tumour-free (MDA-MB-231 xenograft; MDA-MB-231 xenograft, 100 µg daily s.c., 6th week of treatment): 2 animals from 7; Tumour volume (cm^3) (MDA-MB-231 xenograft; [20]): 0.49 cm^3; Tumour volume as control (%) (MDA-MB-231 xenograft; [20]): 53%; Tumour volume (cm^3) (MDA-MB-231 xenograft; [21]): 0.40 cm^3; Tumour volume as control (%) (MDA-MB-231 xenograft; [21]): 32%; Tumour volume (cm^3) (MDA-MB-231 xenograft; [22]): 0.31 cm^3; Tumour volume as control (%) (MDA-MB-231 xenograft; [22]): 24%; % Inhibition of cell division (proliferation) (MDA-MB-231 [9]): 11%; % Inhibition of cell division (proliferation) (MCF-7 [10]): 10%
